Consider 11 compounds from ChEMBL document CHEMBL1201862, “PubChem BioAssay data set” (2004).

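96-well plates; 48 h exposure; 5 concentrations. Endpoints by linear interpolation between flanking doses. Not reached: highest tested concentration assigned. At the GI50, growth is halved.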 Active and inactive are the calls of the source. Rule as the data show it: active = GI50 up to about 1.1 µM and inactive = higher.

Assay in all cases: NCI anticancer screen, dose series, 48 h
Assay [1] deals with SNB-75.
Assay [2] has as its system SK-MEL-28.
Assay [3] has as its system COLO 205.
Assay [4] concerns TK-10.
In assay [5] the test system is Malme-3M.
In assay [6] the test system is SF-268.
Assay [7] has as its system IGROV-1.
The test system of assay [8] is K562.
Assay [9] concerns SK-MEL-5.
Assay [10] deals with SNB-19.
Assay [11] concerns HCC 2998.
Assay [12] relates to MDA-MB-231.
The subject of assay [13] is RXF 393.
For assay [14], the system named is 786-0.
For assay [15], the system named is OVCAR-8.
Assay [16] has as its system T47D.
Assay [17] relates to DU-145.
Assay [18] relates to HT-29.
Assay [19] deals with OVCAR-4.
The subject of assay [20] is HOP-62.

Take `O=c1oc2ccccc2c(-c2ccc(O)cc2)c1Oc1ccc(Cl)cc1`: the GI50 in [1] is 18.7 µM (inactive); in assay [2] it was 15.3 µM (inactive); in [3], 23.2 µM (inactive); in assay [4], 20.7 µM (inactive); in assay [5], 18.2 µM (inactive); in [6] it was 23.6 µM (inactive). For the same compound, the GI50 in assay [7] is 20.3 µM (inactive); in assay [8], 21 µM (inactive); in assay [9], 18.3 µM (inactive); in assay [10], 22.4 µM (inactive); in assay [11] it was 16.9 µM (inactive); in assay [12], 22.4 µM (inactive). In addition, the GI50 in [13] was 19.4 µM (inactive); in [14], 26.9 µM (inactive); in assay [15] it was 25.8 µM (inactive); in assay [16] it was 29.6 µM (inactive); in assay [17], 42.7 µM (inactive); in assay [18] it was 20.1 µM (inactive). Moreover, in assay [19], the GI50 is 38.4 µM (inactive).

Consider `C[C@@H](CCO)OC1OC(COC(=O)C(C)(C)C)C(OC(=O)C(C)(C)C)C(OC(=O)C(C)(C)C)C1OC(=O)C(C)(C)C` (stereo not given in full), for which the GI50 is 32.1 µM (inactive) in assay [1]; 21.9 µM (inactive) in [2]; > 100 µM (inactive) in [3]; 50.7 µM (inactive) in [4]; 50.6 µM (inactive) in [6]; 28.2 µM (inactive) in assay [7]. Also, the GI50 in [8] is 89.7 µM (inactive); in assay [9], 4.97 µM (inactive); in [10], 12.6 µM (inactive); in assay [11] it was 16.6 µM (inactive); in [12] it was 3.4 µM (inactive); in assay [13] it was 7.46 µM (inactive). Further, the GI50 in [14] is 39.5 µM (inactive); in assay [15] it was 96.8 µM (inactive); in assay [16], > 100 µM (inactive); in assay [17], > 100 µM (inactive); in [20] it was 85.5 µM (inactive); in [18], 13.6 µM (inactive). In addition, the GI50 in [19] is 27 µM (inactive).

On to `COC(OC)C(O)C1OC=CC1n1cnc2c(N)ncnc21` (stereo not given), for which the GI50 in [1] is 18.3 µM (inactive); in [2] it was > 100 µM (inactive); in assay [3] it was > 100 µM (inactive); in assay [4], > 100 µM (inactive); in assay [6], > 100 µM (inactive); in assay [7], > 100 µM (inactive). The GI50 in assay [8] is > 100 µM (inactive); in [9], > 100 µM (inactive); in [11] it was > 100 µM (inactive); in [12] it was > 100 µM (inactive); in assay [13] it was 13 µM (inactive); in [14], > 100 µM (inactive). Also, the GI50 in assay [16], in [17], in assay [20], in assay [18] and in assay [19] was > 100 µM (inactive) throughout.

On to `CCOC(=O)c1nc2ccc(C(F)(F)F)cc2nc1NCc1ccc(F)cc1`, for which the GI50 in assay [1] was 91.4 µM (inactive); in assay [2] it was 44 µM (inactive); in [3], 27 µM (inactive); in assay [4], 27.9 µM (inactive); in assay [5], 35.5 µM (inactive); in [6], 11.5 µM (inactive). For the same compound, the GI50 in assay [7] is 26.5 µM (inactive); in [8] it was 24.5 µM (inactive); in [10] it was 32.6 µM (inactive); in assay [11], 24.8 µM (inactive); in [12], 32.1 µM (inactive); in assay [13], 37.2 µM (inactive). The GI50 was 30.1 µM (inactive) in assay [14]; 30.9 µM (inactive) in assay [15]; 17.1 µM (inactive) in assay [16]; 46.5 µM (inactive) in assay [17]; 47.3 µM (inactive) in assay [20]; 35.4 µM (inactive) in [18]. For the same compound, in assay [19], the GI50 was 12 µM (inactive).

For `Cc1cc(C)c(C[C@H]2COC(=O)[C@]2(O)Cc2c(C)cc(C)cc2C)c(C)c1`, the GI50 in [1] was 19.4 µM (inactive); in assay [2], 24.7 µM (inactive); in assay [3] it was 18.7 µM (inactive); in assay [4], 21.6 µM (inactive); in [5], 13.9 µM (inactive); in assay [6], 14.9 µM (inactive). Besides, the GI50 was 25.2 µM (inactive) in assay [8]; 17 µM (inactive) in assay [9]; 21.6 µM (inactive) in assay [10]; 13.7 µM (inactive) in assay [11]; 16.7 µM (inactive) in assay [12]; 11.2 µM (inactive) in assay [13]. Besides, the GI50 in assay [14] is 20.8 µM (inactive); in [15], 23.6 µM (inactive); in [16], 4.67 µM (inactive); in assay [17] it was 15.2 µM (inactive); in assay [20] it was 19.2 µM (inactive); in assay [18] it was 27.9 µM (inactive). Further, the GI50 in assay [19] is 12.9 µM (inactive).

Regarding `Nc1nccc(NCC2(CO)CC(OCc3ccccc3)C2)n1` (stereo not given), the GI50 in assay [1] was > 100 µM (inactive); in [2] it was > 100 µM (inactive); in assay [3], 99.1 µM (inactive); in [5], > 100 µM (inactive); in [6], > 10 µM (inactive); in [7], > 100 µM (inactive). The GI50 in [8] was 79.1 µM (inactive); in assay [9], 35.8 µM (inactive); in [11], > 100 µM (inactive); in assay [12], > 100 µM (inactive); in [13] it was > 100 µM (inactive); in [14], > 100 µM (inactive). Besides, the GI50 is > 100 µM (inactive) in assay [15]; 7.98 µM (inactive) in [16]; 79.4 µM (inactive) in assay [17]; > 100 µM (inactive) in [20]; > 100 µM (inactive) in assay [18]; 48.3 µM (inactive) in [19].

`O=C(c1cc(Cl)cc(Cl)c1)N(C(=S)OC12CC3CC(CC(C3)C1)C2)c1ccccc1`: the GI50 in assay [1] was 61 µM (inactive); in assay [2] it was 59.4 µM (inactive); in [3], 18.6 µM (inactive); in [4], 53.3 µM (inactive); in assay [5], 49.7 µM (inactive); in assay [6], 52.8 µM (inactive). The GI50 in assay [9] was 28.3 µM (inactive); in [10] it was 45.6 µM (inactive); in assay [11], 33.8 µM (inactive); in assay [12] it was 38.6 µM (inactive); in [13] it was 41.2 µM (inactive); in assay [14], 32.8 µM (inactive). For the same compound, the GI50 in [15] was 41.7 µM (inactive); in [16], 61.2 µM (inactive); in [17], 75.2 µM (inactive); in [20], 42.7 µM (inactive); in [18] it was 39.4 µM (inactive); in assay [19], 46.8 µM (inactive).

Take `CC1(C)C2C=CC1(C)C1(CC2)OCCO1` (stereo not given): the GI50 in assay [1] is 66.1 µM (inactive); in [2] it was > 100 µM (inactive); in assay [3], > 100 µM (inactive); in assay [4], > 100 µM (inactive); in assay [5] it was > 100 µM (inactive); in assay [6], > 100 µM (inactive). Besides, the GI50 in assay [7], in assay [8], in assay [10], in assay [11], in [12] and in assay [13] was > 100 µM (inactive) in each case. Moreover, the GI50 in [14], in assay [15], in assay [16], in assay [17], in assay [20] and in assay [18] was > 100 µM (inactive) throughout. In addition, in assay [19], the GI50 was > 100 µM (inactive).

For `Cc1ccc2c(c1C)C(=O)C1(C2)Cc2ccc3c(c2C1=O)CCC3` (stereo not given), the GI50 in assay [1], in assay [2], in assay [3], in assay [4], in [5] and in assay [6] was > 100 µM (inactive) in each case. Further, the GI50 in [7], in [8], in assay [9], in assay [10], in assay [11] and in [12] was > 100 µM (inactive) each time. Besides, the GI50 was 41.8 µM (inactive) in assay [13]; > 100 µM (inactive) in assay [14]; > 100 µM (inactive) in [15]; > 100 µM (inactive) in [16]; > 100 µM (inactive) in assay [17]; > 100 µM (inactive) in [18]. Besides, in assay [19], the GI50 is > 100 µM (inactive).

As to `O=c1cc(NNCc2ccccc2)[nH]c(=O)[nH]1`, the GI50 in assay [2] is > 100 µM (inactive); in assay [3], > 100 µM (inactive); in assay [4] it was > 100 µM (inactive); in assay [5], 80.5 µM (inactive); in [6], > 100 µM (inactive); in assay [7], > 100 µM (inactive). For the same compound, the GI50 in assay [8], in [9], in assay [10], in [11], in assay [12] and in assay [13] was > 100 µM (inactive) in each case. The GI50 is > 100 µM (inactive) in assay [14]; > 100 µM (inactive) in [15]; 0.678 µM (active) in [16]; > 100 µM (inactive) in assay [17]; > 100 µM (inactive) in assay [20]; > 100 µM (inactive) in [18]. Moreover, the GI50 in assay [19] is > 100 µM (inactive).

On to `COc1ccc2c3c([nH]c2c1)[C@H](C=C(C)C)N1C(=O)[C@@H]2CCCN2C(=O)[C@@H]1C3` [FUMITREMORGIN], for which the GI50 in assay [1] is 21.7 µM (inactive); in assay [2] it was 22.2 µM (inactive); in [3], > 100 µM (inactive); in assay [4], 29.1 µM (inactive); in assay [5], 78.3 µM (inactive); in [6], 44 µM (inactive). For the same compound, the GI50 in [7] was > 100 µM (inactive); in assay [8], > 100 µM (inactive); in [10], > 100 µM (inactive); in assay [11] it was 37.2 µM (inactive); in assay [12], 70.8 µM (inactive); in [13] it was 38.1 µM (inactive). Besides, the GI50 is 48 µM (inactive) in assay [14]; 64.4 µM (inactive) in assay [15]; > 100 µM (inactive) in assay [16]; > 100 µM (inactive) in [17]; 47 µM (inactive) in [20]; > 100 µM (inactive) in assay [18]. Besides, in assay [19], the GI50 was > 100 µM (inactive).
